Test results reported in the supplement of paper PMC10307832.

Key:
Experiment in all cases: relative viability (nuclei count vs DMSO), 5 days (fraction); higher = more cells survive
[1] = compound: COc1cc2ncn(-c3cc(OCc4ccccc4C(F)(F)F)c(C(N)=O)s3)c2cc1OC + CC(=O)c1c(C)c2cnc(Nc3ccc(N4CCNCC4)cn3)nc2n(C2CCCC2)c1=O [Palbociclib] (partner 0.5 µM)
Summary of the method: (§1)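 Relative viability equals treated-well nuclei counts divided by vehicle-well nuclei counts. Counts came from 4× images of lung cancer cell lines grown in 1536-well plates for 5 days after pin-tool dosing on the day after seeding. Dosing used one drug alone or a fixed anchor-drug dose plus five library-drug doses (not always all listed) in √10 steps, and values are medians of duplicate plates.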

[2] = compound: COc1cc2ncn(-c3cc(OCc4ccccc4C(F)(F)F)c(C(N)=O)s3)c2cc1OC + C[C@@H](Oc1cc(-c2cnn(C3CCNCC3)c2)cnc1N)c1c(Cl)ccc(F)c1Cl [Crizotinib] (partner 1 µM)
Summary of the method: as §1

[3] = compound: COc1cc2ncn(-c3cc(OCc4ccccc4C(F)(F)F)c(C(N)=O)s3)c2cc1OC + NC(=O)Nc1cc(-c2cccc(F)c2)sc1C(=O)N[C@H]1CCCNC1 [AZD7762] (partner 0.2 µM)
Summary of the method: as §1

[4] = compound: COc1cc2ncn(-c3cc(OCc4ccccc4C(F)(F)F)c(C(N)=O)s3)c2cc1OC + O=C(CCCCCCC(=O)Nc1ccccc1)NO [Vorinostat] (partner 1 µM)
Summary of the method: as §1

| Cell Line | relative viability ([1]; first compound 0.05 µM) | relative viability ([1]; first compound 0.1581 µM) | relative viability ([1]; first compound 0.5 µM) | relative viability ([1]; first compound 1.581 µM) | relative viability ([1]; first compound 5 µM) | relative viability ([2]; first compound 0.05 µM) | relative viability ([2]; first compound 0.1581 µM) | relative viability ([2]; first compound 0.5 µM) | relative viability ([2]; first compound 1.581 µM) | relative viability ([2]; first compound 5 µM) | relative viability ([3]; first compound 0.05 µM) | relative viability ([3]; first compound 0.1581 µM) | relative viability ([3]; first compound 0.5 µM) | relative viability ([3]; first compound 1.581 µM) | relative viability ([3]; first compound 5 µM) | relative viability ([4]; first compound 0.05 µM) | relative viability ([4]; first compound 0.1581 µM) | relative viability ([4]; first compound 0.5 µM) | relative viability ([4]; first compound 1.581 µM) | relative viability ([4]; first compound 5 µM) |
| --- | --- | --- | --- | --- | --- | --- | --- | --- | --- | --- | --- | --- | --- | --- | --- | --- | --- | --- | --- | --- |
| 201T | 0.363 | 0.38 | 0.335 | 0.349 | 0.28 | 1.05 | 1.08 | 0.967 | 0.878 | 0.293 | 0.642 | 0.668 | 0.554 | 0.442 | 0.242 | 1.01 | 0.994 | 0.815 | 0.283 | 0.195 |
| A-427 | 0.553 | 0.479 | 0.502 | 0.331 | 0.236 | 0.917 | 0.826 | 0.587 | 0.163 | 0.124 | 0.793 | 0.68 | 0.682 | 0.231 | 0.153 | 0.88 | 0.947 | 0.684 | 0.194 | 0.154 |
| ABC-1 | 0.665 | 0.777 | 0.748 | 0.583 | 0.37 | 1.34 | 0.988 | 0.875 | 0.152 | 0.291 | 0.782 | 0.487 | 0.741 | 0.631 | 1.01 | 1.59 | 0.849 | 0.58 | 0.369 | 0.305 |
| BEN | 0.5 | 0.455 | 0.471 | 0.45 | 0.437 | 0.814 | 0.839 | 0.687 | 0.268 | 0.526 | 0.788 | 0.735 | 0.678 | 0.464 | 0.389 | 0.643 | 0.591 | 0.413 | 0.33 | 0.3 |
| CAL-12T | 0.411 | 0.422 | 0.381 | 0.187 | 0.148 | 0.705 | 0.377 | 0.207 | 0.126 | 0.124 | 0.555 | 0.598 | 0.514 | 0.239 | 0.199 | 0.674 | 0.558 | 0.268 | 0.141 | 0.159 |
| ChaGo-K-1 | 0.948 | 0.878 | 0.649 | 0.247 | 0.147 | 1.07 | 0.944 | 0.831 | 0.434 | 0.38 | 0.896 | 0.853 | 0.882 | 0.237 | 0.16 | 0.775 | 0.721 | 0.629 | 0.232 | 0.162 |
| EKVX | 0.362 | 0.438 | 0.371 | 0.248 | 0.219 | 1.04 | 1.04 | 0.731 | 0.225 | 0.563 | 0.841 | 0.48 | 0.655 | 0.416 | 0.33 | 0.745 | 0.836 | 0.477 | 0.363 | 0.167 |
| EMC-BAC-2 | 0.478 | 0.512 | 0.476 | 0.376 | 0.272 | 0.893 | 0.855 | 0.789 | 0.439 | 0.154 | 1.18 | 1.21 | 1.08 | 0.357 | 0.223 | 0.899 | 0.535 | 0.305 | 0.223 | 0.158 |
| EPLC-272H | 0.273 | 0.322 | 0.222 | 0.144 | 0.226 | 0.86 | 0.709 | 0.323 | 0.0912 | 0.134 | 0.191 | 0.334 | 0.247 | 0.107 | 0.13 | 0.175 | 0.181 | 0.0719 | 0.077 | 0.12 |
| H3255 | 0.315 | 0.285 | 0.306 | 0.256 | 0.264 | 0.777 | 0.981 | 0.574 | 0.238 | 0.229 | 0.946 | 0.922 | 0.625 | 0.395 | 0.324 | 0.806 | 0.492 | 0.627 | 0.606 | 0.481 |
| HARA | 0.224 | 0.251 | 0.234 | 0.173 | 0.127 | 1.18 | 0.981 | 0.786 | 0.275 | 0.119 | 0.301 | – | 0.201 | 0.173 | 0.112 | 0.358 | 0.421 | 0.237 | 0.0932 | 0.0592 |
| HCC-15 | 0.729 | 0.702 | 0.519 | 0.167 | 0.141 | 0.855 | 0.716 | 0.461 | 0.152 | 0.11 | 1.18 | 1.05 | 1.03 | 0.21 | 0.154 | 0.618 | 0.769 | 0.349 | 0.139 | 0.127 |
| HCC-44 | 1.02 | 1.01 | 0.925 | 0.383 | 0.35 | 0.818 | 0.815 | 0.503 | 0.123 | 0.104 | 1.03 | 1.04 | 0.991 | 0.549 | 0.375 | 1.14 | 1.03 | 0.852 | 0.331 | 0.247 |
| HCC-78 | 0.497 | 0.478 | 0.435 | 0.406 | 0.357 | 0.314 | 0.345 | 0.245 | 0.257 | 0.257 | 0.795 | 0.653 | 0.493 | 0.565 | 0.422 | 0.483 | 0.396 | 0.281 | 0.261 | 0.223 |
| HCC-366 | 0.136 | 0.372 | 0.248 | 0.0295 | 0.0149 | 0.788 | 0.545 | 0.117 | 0.013 | 0.0129 | 0.51 | 0.431 | 0.385 | 0.0175 | 0.0105 | 0.347 | 0.3 | 0.0923 | 0.0208 | 0.0152 |
| HCC-827 | 0.442 | 0.391 | 0.486 | 0.424 | 0.217 | 0.925 | 0.871 | 0.698 | 0.341 | 0.287 | 0.229 | 0.246 | 0.185 | 0.201 | 0.161 | 0.995 | 0.887 | 0.763 | 0.376 | 0.445 |
